According to patent US8415469B2, “Compounds and methods for kinase modulation, and indications therefor” (Plexxikon Inc., priority 2005, dated 2013):

Key:
Assay type in all cases: biochemical
Met = target: T1, Met (Homo sapiens, UniProt P08581); assay: AlphaScreen kinase assay, Met; details: read-out: IC50, activity toward kinase Met
T1 construct: P1818.pETN6 BI-PTP MET G1056-G1364-X WT; His6 (N); made in house; host or cells: E. coli (PTP1B co-expressed)
Text: (§1) AlphaScreen assay was used to screen additional kinases. The assay is similarly dependent on the phosphorylation of a peptide substrate. In this assay, an antibody that recognizes phosphorylated substrate is bound to an acceptor bead. The peptide substrate is attached to biotin, which binds to a donor head that contains streptavidin. Thus phosphorylated substrate is bound by antibody and streptavidin, bringing the donor and acceptor heads into close proximity when kinase is not inhibited. The donor produces singlet oxygen which results in emission from the acceptor when they are in close proximity. Conversely, when kinase is inhibited, the donor and acceptor beads are not associated and the emission from the acceptor is reduced.
(§2) AlphaScreen assays were done using compounds dissolved in DMSO to a concentration of 20 mM. The compounds were diluted accordingly to the desired final concentrations in each sample well, using 1:3 serial dilution for a total of 8 concentration points.

Jnk3 = target: T2, Jnk3 (Homo sapiens, UniProt P53779); assay: AlphaScreen kinase assay, Jnk3; details: read-out: IC50, activity toward kinase Jnk3
T2 construct: purchased Upstate Biotechnology

Ret = target: T3, Ret (Homo sapiens, UniProt P07949); assay: AlphaScreen kinase assay, Ret; details: read-out: IC50, activity toward kinase Ret
T3 construct: P1378.pET-SF BI-PTP RET H661-R1012 HIS; made in house
T3 sequence (P07949 with tags, fused parts or gaps): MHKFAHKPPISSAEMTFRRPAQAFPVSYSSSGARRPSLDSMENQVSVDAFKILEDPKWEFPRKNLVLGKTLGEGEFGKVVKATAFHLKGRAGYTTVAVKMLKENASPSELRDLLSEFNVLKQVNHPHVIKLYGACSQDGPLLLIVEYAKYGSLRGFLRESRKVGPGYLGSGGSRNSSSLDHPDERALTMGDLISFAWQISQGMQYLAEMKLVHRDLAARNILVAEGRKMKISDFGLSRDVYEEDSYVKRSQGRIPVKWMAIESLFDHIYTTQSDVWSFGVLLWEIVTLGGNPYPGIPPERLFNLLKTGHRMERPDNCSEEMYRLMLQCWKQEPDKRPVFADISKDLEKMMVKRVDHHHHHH

Yes = target: T4, Yes (Homo sapiens, UniProt P07947); assay: Z'-Lyte FRET kinase assay (Invitrogen), Yes; details: read-out: IC50, activity toward kinase Yes
T4 construct: purchased Invitrogen (Carlsbad, Calif.), screening service
In short: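 Serially diluted compound (final 1% DMSO) incubated 1 h at room temperature with kinase, 2 μM FRET peptide and 10 μM ATP in pH 7.5 HEPES buffer. Site-specific protease then cleaves unphosphorylated peptide (1 h); inhibition read as increased coumarin-to-fluorescein emission ratio.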

Btk = target: T5, Btk (Homo sapiens, UniProt Q06187); assay: Z'-Lyte FRET kinase assay (Invitrogen), Btk; details: read-out: IC50, activity toward kinase Btk
T5 construct: purchased Invitrogen (assay run by Invitrogen)

Zap70 = target: T6, Zap70 (Homo sapiens, UniProt P43403); assay: AlphaScreen kinase assay, Zap70; details: read-out: IC50, activity toward kinase Zap70
T6 construct: P1868.pFastBac1 ZAP70 D327-G606 HIS, WT; His7 (HHHHHHH) (C); made in house
T6 sequence (P43403 with tags, fused parts or gaps): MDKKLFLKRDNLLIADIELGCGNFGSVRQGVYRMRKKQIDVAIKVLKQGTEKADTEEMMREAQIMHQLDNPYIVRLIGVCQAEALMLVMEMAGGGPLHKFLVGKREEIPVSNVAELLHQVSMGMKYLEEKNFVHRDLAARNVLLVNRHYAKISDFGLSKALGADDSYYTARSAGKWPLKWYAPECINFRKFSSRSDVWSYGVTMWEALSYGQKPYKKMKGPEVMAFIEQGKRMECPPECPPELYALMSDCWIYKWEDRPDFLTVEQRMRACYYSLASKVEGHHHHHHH
In short: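 Here, phosphorylation of a biotin-tagged peptide was sensed by proximity of streptavidin donor and antibody-bearing acceptor beads. Test compounds covered 8 concentrations by 1:3 serial dilution of 20 mM DMSO stocks.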

B-Raf V600E = target: T7, B-Raf V600E (Homo sapiens, UniProt P15056, V600E); assay: AlphaScreen kinase assay, B-Raf V600E; details: read-out: IC50, activity toward kinase B-Raf V600E
T7 construct: P4254. pFastBacBD-CDC37 BRAF D437-K722-X, V600E; His6 with pFastBac HT leader (TEV site) (N); made in house; host or cells: Sf9 (baculovirus; chaperone CDC37 co-expressed)

Abl = target: T8, Abl (Homo sapiens, UniProt P00519); assay: AlphaScreen kinase assay, Abl; details: read-out: activity toward kinase Abl, IC50
T8 construct: P1121. pET-SPEC BI-PTP Abl G227-V515-X; His6 (N); made in house; host or cells: E. coli (PTP1B co-expressed)
T8 sequence (P00519 with tags, fused parts or gaps): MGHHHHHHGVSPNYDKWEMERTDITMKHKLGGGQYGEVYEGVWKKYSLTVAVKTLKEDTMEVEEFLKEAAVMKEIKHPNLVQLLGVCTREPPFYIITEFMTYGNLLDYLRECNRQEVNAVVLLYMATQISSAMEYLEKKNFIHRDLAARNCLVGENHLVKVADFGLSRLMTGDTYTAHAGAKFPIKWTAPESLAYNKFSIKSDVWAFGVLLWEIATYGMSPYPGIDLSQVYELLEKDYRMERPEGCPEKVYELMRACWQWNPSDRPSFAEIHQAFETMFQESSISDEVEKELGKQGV
Text: as §1, §2

FGFR1 = target: T9, FGFR1 (Homo sapiens, UniProt P11362, C488A/C584S); assay: AlphaScreen kinase assay, FGFR1; details: read-out: IC50, activity toward kinase FGFR
T9 construct: P1351.pET N6 BI-PTP FGFR A458-E765-X C488A, C584S; made in house; host or cells: E. coli (PTP1B co-expressed)

Flt1 = target: T10, Flt1 (Homo sapiens, UniProt P17948); assay: AlphaScreen kinase assay, Flt1; details: read-out: IC50, activity toward kinase Flt1
T10 construct: P1826.pETN6 BI-PTP FLT1 M799-D1165-X WT; His6 (N); made in house; host or cells: E. coli (PTP1B co-expressed)
T10 sequence (P17948 with tags, fused parts or gaps): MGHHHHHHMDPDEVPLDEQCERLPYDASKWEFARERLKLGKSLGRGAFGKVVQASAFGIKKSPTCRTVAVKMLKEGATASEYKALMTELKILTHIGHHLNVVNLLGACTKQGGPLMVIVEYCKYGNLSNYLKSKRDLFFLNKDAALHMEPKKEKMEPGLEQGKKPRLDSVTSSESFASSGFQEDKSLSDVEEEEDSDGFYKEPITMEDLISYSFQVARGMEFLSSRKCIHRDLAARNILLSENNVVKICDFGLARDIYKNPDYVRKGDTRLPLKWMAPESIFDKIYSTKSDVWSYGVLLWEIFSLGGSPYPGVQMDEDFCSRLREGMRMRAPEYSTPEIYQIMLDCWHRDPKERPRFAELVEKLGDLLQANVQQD

Kit = target: T11, Kit (Homo sapiens, UniProt P10721); assay: AlphaScreen kinase assay, Kit; details: read-out: IC50, activity toward kinase Kit
T11 construct: P1332.N6 BI PTP KIT M552-K948-X COD; His6 (N); made in house; host or cells: E. coli (PTP1B co-expressed)

Fms = target: T12, Fms (Homo sapiens, UniProt P07333); assay: AlphaScreen kinase assay, Fms; details: read-out: IC50, activity toward kinase Fms
T12 construct: purchased Upstate Biotechnology

Jnk1 = target: T13, Jnk1 (Homo sapiens, UniProt P45983); assay: AlphaScreen kinase assay, Jnk1; details: read-out: IC50, activity toward kinase Jnk1
T13 construct: purchased Upstate Biotechnology

c-Raf-1 = target: T14, c-Raf-1 (Homo sapiens, UniProt P04049); assay: AlphaScreen kinase assay, c-Raf-1; details: read-out: IC50, activity toward kinase c-Raf-1
T14 construct: purchased Upstate Biotechnology

Kdr = target: T15, Kdr (Homo sapiens, UniProt P35968); assay: Z'-Lyte FRET kinase assay (Invitrogen), Kdr; details: read-out: IC50, activity toward kinase Kdr
T15 construct: purchased Invitrogen (assay run by Invitrogen)

B-Raf = target: T16, B-Raf (Homo sapiens, UniProt P15056); assay: AlphaScreen kinase assay, B-Raf; details: read-out: IC50, activity toward kinase B-Raf
T16 construct: purchased Upstate Biotechnology

MAP4K4 = MAP4K4 (Homo sapiens, UniProt O95819); assay: AlphaScreen kinase assay, MAP4K4; details: read-out: IC50, activity toward kinase MAP4K4

Measured: IC50

T14 sequence (P04049 whole entry): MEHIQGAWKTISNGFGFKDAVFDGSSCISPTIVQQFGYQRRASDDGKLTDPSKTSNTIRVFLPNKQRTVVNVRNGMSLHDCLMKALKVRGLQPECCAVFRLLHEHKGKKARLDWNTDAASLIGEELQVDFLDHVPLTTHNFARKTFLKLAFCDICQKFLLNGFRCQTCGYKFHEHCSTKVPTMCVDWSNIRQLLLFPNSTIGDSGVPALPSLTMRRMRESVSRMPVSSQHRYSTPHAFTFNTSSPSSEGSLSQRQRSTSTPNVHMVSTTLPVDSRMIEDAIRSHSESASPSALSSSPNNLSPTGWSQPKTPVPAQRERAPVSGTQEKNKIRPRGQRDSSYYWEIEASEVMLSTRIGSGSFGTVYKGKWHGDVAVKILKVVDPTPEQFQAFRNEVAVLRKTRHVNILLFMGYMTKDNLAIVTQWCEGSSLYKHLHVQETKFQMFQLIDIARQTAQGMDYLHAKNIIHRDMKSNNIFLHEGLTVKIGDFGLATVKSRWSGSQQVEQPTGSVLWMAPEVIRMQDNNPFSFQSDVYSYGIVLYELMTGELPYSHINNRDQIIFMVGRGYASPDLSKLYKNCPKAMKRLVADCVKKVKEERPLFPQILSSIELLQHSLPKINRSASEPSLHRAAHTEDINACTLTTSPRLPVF
T1 sequence (P08581 with tags, fused parts or gaps): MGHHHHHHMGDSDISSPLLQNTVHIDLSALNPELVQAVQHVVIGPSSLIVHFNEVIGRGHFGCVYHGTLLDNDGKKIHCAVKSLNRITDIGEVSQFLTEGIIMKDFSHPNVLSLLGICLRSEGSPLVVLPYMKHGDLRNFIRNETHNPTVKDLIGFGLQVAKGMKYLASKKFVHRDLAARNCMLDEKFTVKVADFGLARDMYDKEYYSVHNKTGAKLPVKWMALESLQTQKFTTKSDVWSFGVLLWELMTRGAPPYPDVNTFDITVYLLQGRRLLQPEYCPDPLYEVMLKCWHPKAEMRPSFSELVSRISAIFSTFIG
T2 sequence (P53779 whole entry): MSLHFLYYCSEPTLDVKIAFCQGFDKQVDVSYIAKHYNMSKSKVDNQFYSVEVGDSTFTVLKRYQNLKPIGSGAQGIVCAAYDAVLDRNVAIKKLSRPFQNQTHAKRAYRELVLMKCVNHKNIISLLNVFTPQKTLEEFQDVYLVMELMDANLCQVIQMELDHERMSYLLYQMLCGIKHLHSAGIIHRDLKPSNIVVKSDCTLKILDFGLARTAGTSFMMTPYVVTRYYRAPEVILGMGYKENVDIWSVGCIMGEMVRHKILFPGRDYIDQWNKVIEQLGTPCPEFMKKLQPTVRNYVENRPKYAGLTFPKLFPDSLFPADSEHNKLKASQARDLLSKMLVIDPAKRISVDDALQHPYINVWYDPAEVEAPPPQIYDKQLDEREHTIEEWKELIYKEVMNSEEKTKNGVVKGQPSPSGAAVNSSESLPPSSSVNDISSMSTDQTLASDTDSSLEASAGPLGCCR
T7 sequence (P15056 with tags, fused parts or gaps V600E): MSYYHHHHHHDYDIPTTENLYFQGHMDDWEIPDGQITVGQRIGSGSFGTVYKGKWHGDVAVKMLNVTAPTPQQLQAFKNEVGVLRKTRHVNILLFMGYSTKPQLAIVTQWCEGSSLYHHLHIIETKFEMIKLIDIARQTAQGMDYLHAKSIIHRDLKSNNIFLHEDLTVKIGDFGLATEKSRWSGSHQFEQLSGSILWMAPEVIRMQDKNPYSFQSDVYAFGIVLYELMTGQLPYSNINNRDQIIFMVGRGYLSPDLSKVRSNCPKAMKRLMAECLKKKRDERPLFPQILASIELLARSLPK
T11 sequence (P10721 with tags, fused parts or gaps): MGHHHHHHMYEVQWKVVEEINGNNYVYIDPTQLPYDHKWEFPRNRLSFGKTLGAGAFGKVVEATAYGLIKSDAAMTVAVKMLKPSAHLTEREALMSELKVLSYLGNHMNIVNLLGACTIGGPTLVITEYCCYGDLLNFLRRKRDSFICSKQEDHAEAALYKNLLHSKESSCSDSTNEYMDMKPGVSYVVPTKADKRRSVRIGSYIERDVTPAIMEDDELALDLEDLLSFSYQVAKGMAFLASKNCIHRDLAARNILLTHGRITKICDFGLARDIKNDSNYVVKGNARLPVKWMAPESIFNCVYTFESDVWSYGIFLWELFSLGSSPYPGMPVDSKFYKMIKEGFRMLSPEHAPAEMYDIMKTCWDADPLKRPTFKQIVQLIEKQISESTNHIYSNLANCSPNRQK
T12 sequence (P07333 20-972): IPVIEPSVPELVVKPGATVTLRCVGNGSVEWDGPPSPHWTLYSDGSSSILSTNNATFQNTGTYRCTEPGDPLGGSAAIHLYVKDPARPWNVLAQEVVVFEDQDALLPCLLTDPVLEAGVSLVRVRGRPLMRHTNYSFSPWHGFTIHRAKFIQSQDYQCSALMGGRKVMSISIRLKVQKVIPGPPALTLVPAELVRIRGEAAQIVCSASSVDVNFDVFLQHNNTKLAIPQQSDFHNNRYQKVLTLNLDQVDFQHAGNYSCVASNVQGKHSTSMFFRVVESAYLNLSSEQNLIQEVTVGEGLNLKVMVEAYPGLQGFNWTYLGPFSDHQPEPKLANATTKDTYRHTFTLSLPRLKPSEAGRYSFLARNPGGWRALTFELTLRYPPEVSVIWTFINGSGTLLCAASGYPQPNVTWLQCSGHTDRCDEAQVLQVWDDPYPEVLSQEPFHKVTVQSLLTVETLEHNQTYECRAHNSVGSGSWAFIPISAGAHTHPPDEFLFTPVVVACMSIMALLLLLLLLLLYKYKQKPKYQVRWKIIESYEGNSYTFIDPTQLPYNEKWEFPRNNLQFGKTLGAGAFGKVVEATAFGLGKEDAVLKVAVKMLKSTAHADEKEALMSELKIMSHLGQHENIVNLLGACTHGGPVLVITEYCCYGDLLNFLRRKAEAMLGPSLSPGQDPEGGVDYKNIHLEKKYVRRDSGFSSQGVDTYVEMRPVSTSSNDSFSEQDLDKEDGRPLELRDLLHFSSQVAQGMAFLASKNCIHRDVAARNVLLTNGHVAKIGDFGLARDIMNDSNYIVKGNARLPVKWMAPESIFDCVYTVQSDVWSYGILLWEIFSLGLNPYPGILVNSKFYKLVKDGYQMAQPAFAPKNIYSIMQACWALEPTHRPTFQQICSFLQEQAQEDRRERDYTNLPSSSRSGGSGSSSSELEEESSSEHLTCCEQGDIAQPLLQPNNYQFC
T9 sequence (P11362 458-765 C488A/C584S): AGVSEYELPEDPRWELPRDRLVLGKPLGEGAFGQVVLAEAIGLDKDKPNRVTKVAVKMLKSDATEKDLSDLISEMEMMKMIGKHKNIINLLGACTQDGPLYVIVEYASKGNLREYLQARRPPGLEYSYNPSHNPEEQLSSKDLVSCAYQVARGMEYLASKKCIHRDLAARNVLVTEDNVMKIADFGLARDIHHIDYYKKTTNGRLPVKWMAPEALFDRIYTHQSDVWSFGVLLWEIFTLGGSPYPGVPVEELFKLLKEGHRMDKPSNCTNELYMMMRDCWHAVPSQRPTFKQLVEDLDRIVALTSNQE
T15 sequence (P35968 20-1356): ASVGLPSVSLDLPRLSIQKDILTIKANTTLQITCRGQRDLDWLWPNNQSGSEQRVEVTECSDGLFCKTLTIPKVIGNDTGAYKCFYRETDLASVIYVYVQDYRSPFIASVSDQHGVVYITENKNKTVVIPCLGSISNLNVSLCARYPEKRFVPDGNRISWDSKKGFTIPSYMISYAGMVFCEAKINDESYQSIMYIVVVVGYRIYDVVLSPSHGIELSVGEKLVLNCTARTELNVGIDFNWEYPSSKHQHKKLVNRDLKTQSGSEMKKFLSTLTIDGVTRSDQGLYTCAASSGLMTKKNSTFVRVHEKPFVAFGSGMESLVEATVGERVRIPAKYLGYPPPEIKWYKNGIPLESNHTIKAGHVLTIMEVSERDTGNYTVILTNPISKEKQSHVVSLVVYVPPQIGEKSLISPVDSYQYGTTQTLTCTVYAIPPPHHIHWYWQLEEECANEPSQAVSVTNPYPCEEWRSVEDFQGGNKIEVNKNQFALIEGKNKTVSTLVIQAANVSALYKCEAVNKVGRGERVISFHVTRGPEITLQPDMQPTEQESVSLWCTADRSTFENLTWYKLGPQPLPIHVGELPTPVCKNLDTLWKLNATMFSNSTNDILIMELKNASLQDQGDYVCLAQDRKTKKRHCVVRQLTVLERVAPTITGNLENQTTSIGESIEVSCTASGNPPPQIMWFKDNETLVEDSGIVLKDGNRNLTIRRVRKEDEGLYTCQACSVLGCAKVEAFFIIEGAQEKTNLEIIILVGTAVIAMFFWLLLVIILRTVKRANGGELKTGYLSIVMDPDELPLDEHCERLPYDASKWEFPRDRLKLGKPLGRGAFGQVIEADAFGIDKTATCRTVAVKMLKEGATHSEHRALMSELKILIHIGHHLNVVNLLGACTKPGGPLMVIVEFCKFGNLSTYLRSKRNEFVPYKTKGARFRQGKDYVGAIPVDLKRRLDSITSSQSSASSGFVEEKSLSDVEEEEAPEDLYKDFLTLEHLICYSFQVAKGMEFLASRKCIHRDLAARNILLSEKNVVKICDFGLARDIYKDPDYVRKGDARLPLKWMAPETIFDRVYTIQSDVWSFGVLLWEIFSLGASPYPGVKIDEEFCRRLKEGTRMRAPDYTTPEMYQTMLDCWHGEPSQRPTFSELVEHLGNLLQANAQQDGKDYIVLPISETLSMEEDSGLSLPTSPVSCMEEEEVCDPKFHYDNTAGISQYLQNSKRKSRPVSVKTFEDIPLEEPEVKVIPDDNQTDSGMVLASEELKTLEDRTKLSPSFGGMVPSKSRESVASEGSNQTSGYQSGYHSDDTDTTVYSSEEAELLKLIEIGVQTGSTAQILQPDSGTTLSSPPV

Cc1cccc(-c2c(CSCc3ccccc3)[nH]c3ncccc23)c1 [Compound P-1132]
≤ 10 µM: Met

Oc1ncc(F)c(Cc2c[nH]c3ncc(-c4ccsc4)cc23)c1F [Compound P-0822]
≤ 10 µM: Jnk3 | Ret | Met

COc1ccc(F)c(C(=O)c2c[nH]c3ncc(-c4cccc(/C=C/C(=O)O)c4)cc23)c1 [Compound P-0047]
≤ 10 µM: Yes | Jnk3 | Btk | Ret | Zap70 | B-Raf V600E | Abl

Cc1ccc(Nc2cnc3[nH]ccc3c2)cc1 [Compound P-1037]
≤ 10 µM: Met

COC(=O)COc1ccc(F)c(Cc2c[nH]c3ncc(-c4cccnc4)cc23)c1F [Compound P-1465, [2,4-Difluoro-3-(5-pyridin-3-yl-1H-pyrrolo[2,3-b]pyridin-3-ylmethyl)-phenoxy]-acetic acid methyl ester]
≤ 10 µM: FGFR1 | Flt1 | Jnk3 | Kit | Fms | Jnk1 | Met | B-Raf V600E

O=C(c1cccc(Cl)c1F)c1c[nH]c2ncc(-c3cccnc3)cc12 [Compound P-0165, (3-Chloro-2-fluoro-phenyl)-(5-pyridin-3-yl-1H-pyrrolo[2,3-b]pyridin-3-yl)-methanone]
≤ 10 µM: c-Raf-1 | Kdr | FGFR1 | Jnk3 | B-Raf | Ret | Met | B-Raf V600E

CCCS(=O)(=O)Nc1ccc(F)c(C(=O)c2c[nH]c3ncc(Br)cc23)c1F [Compound P-0773, propane-1-sulfonic acid [3-(5-bromo-1H-pyrrolo[2,3-b]pyridine-3-carbonyl)-2,4-difluoro-phenyl]-amide]
≤ 10 µM: c-Raf-1 | FGFR1 | Flt1 | Kit | B-Raf | Fms | Met | B-Raf V600E

O=C(NCc1ccccn1)NCc1c[nH]c2ncccc12 [Compound P-0761]
≤ 10 µM: Ret | Met

CC(C)(C)c1ccc(Nc2cnc3[nH]ccc3c2)cc1 [Compound P-1023]
≤ 10 µM: Kdr | Met

O=C(Nc1ccccc1)Nc1ccc(Cc2c[nH]c3ncccc23)cc1 [Compound P-0542]
≤ 10 µM: c-Raf-1 | Ret | Met

Cc1cc(C(=O)c2c[nH]c3ncc(-c4cccnc4)cc23)n(C)n1 [Compound P-0800]
≤ 10 µM: MAP4K4 | Kit | Abl

COc1cc(Nc2cnc3[nH]ccc3c2)cc(OC)c1OC [Compound P-1092]
≤ 10 µM: Met

CC(=O)c1cccc(Nc2cnc3[nH]ccc3c2)c1 [Compound P-1008]
≤ 10 µM: FGFR1 | Flt1 | Jnk3 | Kit | Fms | Jnk1 | Met | B-Raf V600E
